Assays:
Type in all cases: cell-based
[1] = tested on: eight tested cancer cell lines; assay: SRB cytotoxicity assay, eight cancer cell lines; conditions: for viability of the eight tested cancer cell lines: SRB, 0.0001 to 100 μM; for selectivity index compared with doxorubicin: cancer cell lines versus normal cells
From the text: Eight different cancer cell lines were acquired from the Radiobiology and Experimental Radio Oncology lab, University Medical Center, Hamburg University, Hamburg, Germany. MCF7, MDA-MB-231 (breast cancer), and A549 (lung cancer) cells were maintained in RPMI medium while HCT116 (colon cancer), HepG2 (liver cancer), U87, U373 (glioblastoma), and HeLa (cervical cancer) were maintained in DMEM supplemented with 10% FBS and 1% penicillin/streptomycin (Sigma Aldrich, Missouri, USA). Normal human fibroblast (F180) cells were maintained in DMEM supplemented with 15% FBS. Normal human mammary epithelial cell line (HME1) were maintained in DMEM/F-12 medium supplemented with 10% FBS. All incubations were done at 37° C. in a humidified atmosphere of 5% CO2. All cell lines were authenticated by short tandem repeat (STR) profiling. The CDK4 knockout cells (provided by Dr. Samrein Ahmed, University of Sharjah, United Arab Emirates) were generated by CRISPR-CAS9 technology and were maintained in DMEM supplemented with 10% FBS.
The cytotoxic effects of HH32 and HH33 compounds were evaluated at various concentrations ranging from 0.0001 to 100 μM by sulphrhodamine-B (SRB) assay as described previously. The anti-proliferative activity was expressed as growth inhibitory concentration (IC50) values, which were calculated by the sigmoidal dose-response curve fitting method using Graph pad prism 6 software (GraphPad Software, San Diego, CA, USA).

[2] = tested on: MCF7, HCT116, HeLa and A549 cells; assay: Cell cycle analysis by flow cytometry, four cell lines; conditions: for G1 and S phases arrest: four cell lines
Procedure: (§1) The effect of the HH32 and HH33 compounds on the distribution of cell cycle at different time points (2, 4, 8, 24, 48, and 72 hours) was analyzed using flow cytometry. Briefly, the cells were harvested and fixed in 70% ethanol for 24 hours at −20° C. The fixed cells were treated with RNAase […] (Sigma Aldrich, Missouri, USA) and stained with propidium iodide […] (Sigma Aldrich, Missouri, USA). The data were acquired using BD Accuri C6 flow cytometer (Becton Dickenson, San Jose, CA, USA) and analysis was done using Flow Jo software (Tree Star, Inc, Ashland, OR, USA).

[3] = tested on: MCF7, HCT-116, HeLa and A549 cells; assay: Western blot protein expression analysis; conditions: for cyclin E, cyclin D1 and CDK2 levels: G1-S phase transition proteins; for phospho-Rb (ser249): HCT116 and HeLa cells; for level of p-H2Ax (y-H2Ax): MCF7, HeLa, HCT116, and A549 cells, 24 h; for cleavage of caspase-8: all cell lines; for ATR/Chk1 signaling: four cell lines
Procedure: The protein expression analysis was done after treatment with […] of HH32 and HH33 compounds for 24 hours by western blot. Cell lysates were prepared using lysis buffer containing 20% SDS, glycerol, 1M Tris (pH 6.8) and supplemented with protease and phosphatase inhibitors (Sigma Aldrich, Missouri, USA). The proteins were separated by SDS-PAGE and transblotted into nitrocellulose membrane (Biorad, Hercules, CA, USA). Membrane were incubated overnight at 4° C. with the following primary antibodies: 7H2AX, H2Ax, p21, CDC2, CDC25c, cyclin B, c-Myc, Bid, ATM, p-ATM, ATR, p-ATR, Chk1, p-Chk1, Chk2, p-Chk2, caspase 9, caspase 8, pRb (Ser807/811) (Cell Signaling Technology, Massachusetts, USA), p53, cyclin A, cyclin E, cyclin D1, CDK2, Rb, pRb (Ser249) (Santa Cruz Biotech, Texas, USA) and β-actin (Sigma Aldrich, Missouri, USA). Membranes were then incubated with respective mouse/rabbit secondary antibody (Cell Signaling Technology, Massachusetts, USA) for 1 hour at room temperature and detected by enhanced chemiluminescence (ECL) (Biorad, Hercules, CA, USA) method using Chemi Doc imaging system (Biorad, Hercules, CA, USA). The protein bands were quantified using Image lab™ software (Biorad, Hercules, CA, USA).

A549 = assay: Cell cycle analysis by flow cytometry, A549; conditions: 1 μM, up to 72 hours, Control 8.5%
Procedure: as §1

HCT116 = assay: Cell cycle analysis by flow cytometry, HCT116; conditions: 1 μM, peak at 8 hours, Control 27.4%
Procedure: as §1

Row | Compound | viability of the eight tested cancer cell lines [1] | selectivity index compared with doxorubicin [1] | G1 and S phases arrest [2] | cyclin E, cyclin D1 and CDK2 levels [3] | phospho-Rb (ser249) [3] | phospho-Rb (ser807/811) ([3]; HCT-116) | expression of p53 and p21 ([3]; HeLa cells) | phospho-Rb (ser807/811) ([3]; HeLa cells) | expression of p53 and p21 ([3]; MCF7, HCT-116 and A549 cells) | phosphorylation status of ATM and Chk2 ([3]; MCF7, HCT-116 and A549 cells) | level of p-H2Ax (y-H2Ax) ([3]; 0.5 and 1 μM) | cleavage of caspase-8 [3] | ATR/Chk1 signaling [3] | further results
1 | COC(=O)c1cc(NC2=NC(=O)C(=Cc3ccc(C)cc3)S2)ccc1OC(C)=O [HH32, Methyl 2-acetoxy-5-[(5-(4-methylbenzylidene)-4 (H)-oxo-1,3-thiazol-2-yl)-amino]benzoate] | remarkable concentration-dependent decrease | superior in most of cancer cell lines than doxorubicin | no signs | slightly changed | increased | reduced | reduced | increased | substantially increased | increased significantly | marked elevation | cleaved | activate | total c-Myc protein level ([3]; 1 μM, MCF7 and HCT-116 cells): downregulation; phosphorylation status of ATM and Chk2 ([3]; HeLa cells): increased significantly
2 | COC(=O)c1cc(NC2=NC(=O)C(=Cc3ccc(N(C)C)cc3)S2)ccc1OC(C)=O [HH33, Methyl 2-acetoxy-5-[(5-(4-dimethylaminobenzylidene)-4 (H)-oxo-1,3-thiazol-2-yl)-amino]benzoate] | remarkable concentration-dependent decrease | superior in most of cancer cell lines than doxorubicin | no signs | slightly changed | increased | reduced | reduced | increased | substantially increased | increased significantly | marked elevation | cleaved | activate | G2/M cell cycle arrest (A549): 45.1%; percentage of cancer cells arrested at the G2/M border [2]: up to 90%; total c-Myc protein level ([3]; 0.5 and 1 μM, four cancer cell lines): decreased; cleavage of caspase-9 ([3]; MCF7, HeLa and A549 cells): increase; reducing expression of G2/M progression proteins (cyclin A, cyclin B, CDC25c and CDC2/CDK1) ([3]; compared with HH32): more effective than HH32; G2/M phase accumulation (HCT116): 77.4%

Reference: patent US20250002467A1, “DESIGN, SYNTHESIS AND MECHANISMS OF ANTICANCER ACTIVITY OF NEW ACETYLATED 5-AMINOSALICYLATE-THIAZOLINONE HYBRID DERIVATIVES” (University of Sharjah, priority 2023, published 2025)
